# System: conscious spontaneously hypertensive rats (SHR Okamoto)
# Assay: Radiotelemetric measurement of blood pressure on conscious spontaneously hypertensive rats
# Type: in vivo, rat
# Excerpt: A commercially available telemetry system from DATA SCIENCES INTERNATIONAL DSI, USA, is employed for the blood pressure measurements on conscious rats described below.
# The system consists of 3 main components: • implantable transmitters (Physiotel® telemetry transmitter) • receivers (Physiotel® receiver) which are linked via a multiplexer (DSI Data Exchange Matrix) to a • data acquisition computer.
# The telemetry system makes it possible to continuously record blood pressure, heart rate and body motions of conscious animals in their usual habitat.
# The investigations are carried out on adult female spontaneously hypertensive rats (SHR Okamoto) with a body weight of >200 g. SHR/NCrl from the Okamoto Kyoto School of Medicine, 1963 were a cross of male Wistar Kyoto rats with highly elevated blood pressure and female rats having a slightly elevated blood pressure and at F13 handed over to the U.S. National Institutes of Health.
# After transmitter implantation, the experimental animals are housed singly in type 3 Makrolon cages. They have free access to standard feed and water.
# The day/night rhythm in the experimental laboratory is changed by the room lighting at 6.00 am and at 7.00 pm.
# The telemetry transmitters TA11 PA-C40 used are surgically implanted under aseptic conditions in the experimental animals at least 14 days before the first experimental use. The animals instrumented in this way can be employed repeatedly after the wound has healed and the implant has settled.
# For the implantation, the fasted animals are anaesthetized with pentobarbital (Nembutal, Sanofi: 50 mg/kg i.p.) and shaved and disinfected over a large area of their abdomens. After the abdominal cavity has been opened along the linea alba, the liquid-filled measuring catheter of the system is inserted into the descending aorta in the cranial direction above the bifurcation and fixed with tissue glue (VetBonD™, 3M). The transmitter housing is fixed intraperitoneally to the abdominal wall muscle, and layered closure of the wound is performed.
# An antibiotic (Tardomyocel COMP, Bayer, 1 ml/kg s.c.) is administered postoperatively for prophylaxis of infection.
# Unless indicated otherwise, the substances to be investigated are administered orally by gavage in each case to a group of animals (n=6). The test substances are dissolved in suitable solvent mixtures, or suspended in 0.5% strength Tylose, appropriate for an administration volume of 5 ml/kg of body weight.
# A solvent-treated group of animals is employed as control.
# The telemetry measuring unit present is configured for 24 animals. Each experiment is recorded under an experiment number (Vyear month day).
# Each of the instrumented rats living in the system is assigned a separate receiving antenna (1010 Receiver, DSI).
# The implanted transmitters can be activated externally by means of an incorporated magnetic switch and are switched to transmission in the run-up to the experiment. The emitted signals can be detected online by a data acquisition system (Dataquest™ A.R.T. for Windows, DSI) and be appropriately processed. The data are stored in each case in a file created for this purpose and bearing the experiment number.
# In the standard procedure, the following are measured for 10-second periods in each case: • systolic blood pressure (SBP) • diastolic blood pressure (DBP) • mean arterial pressure (MAP) • heart rate (HR) • activity (ACT).
# The acquisition of measured values is repeated under computer control at 5-minute intervals. The source data obtained as absolute value are corrected in the diagram with the currently measured barometric pressure (Ambient Pressure Reference Monitor; APR-1) and stored as individual data. Further technical details are given in the extensive documentation from the manufacturing company (DSI).
# Unless indicated otherwise, the test substances are administered at 9.00 am on the day of the experiment. Following the administration, the parameters described above are measured over 24 hours. […]
# [1] = 0.3 mg/kg p.o., 0 hours after substance administration
# [2] = 0.3 mg/kg p.o., 1 hours after substance administration
# [3] = 0.3 mg/kg p.o., 2 hours after substance administration
# [4] = 0.3 mg/kg p.o., 3 hours after substance administration
# [5] = 0.3 mg/kg p.o., 4 hours after substance administration
# [6] = 0.3 mg/kg p.o., 5 hours after substance administration
# [7] = 0.3 mg/kg p.o., 6 hours after substance administration
# [8] = 0.3 mg/kg p.o., 7 hours after substance administration
# [9] = 0.3 mg/kg p.o., 8 hours after substance administration
# [10] = 0.3 mg/kg p.o., 9 hours after substance administration
# [11] = 0.3 mg/kg p.o., 10 hours after substance administration
# [12] = 0.3 mg/kg p.o., 11 hours after substance administration
# [13] = 0.3 mg/kg p.o., 12 hours after substance administration
# [14] = 0.3 mg/kg p.o., 13 hours after substance administration
# [15] = 0.3 mg/kg p.o., 14 hours after substance administration
# [16] = 0.3 mg/kg p.o., 15 hours after substance administration
# [17] = 0.3 mg/kg p.o., 16 hours after substance administration
# [18] = 0.3 mg/kg p.o., 17 hours after substance administration
# [19] = 0.3 mg/kg p.o., 18 hours after substance administration
# [20] = 0.3 mg/kg p.o., 19 hours after substance administration
# [21] = 0.3 mg/kg p.o., 20 hours after substance administration
# [22] = 0.3 mg/kg p.o., 21 hours after substance administration
# [23] = 0.3 mg/kg p.o., 22 hours after substance administration
# [24] = 0.3 mg/kg p.o., 23 hours after substance administration
# [25] = 0.3 mg/kg p.o., 24 hours after substance administration
smiles,measurement,setting,value
COC(=O)N(C)c1c(N)nc(-c2nn(Cc3ccccc3F)c3ncc(F)cc23)nc1N [Example 2],mean blood pressure,[1],161.3 mm Hg
same,mean blood pressure,[2],145.7 mm Hg
same,mean blood pressure,[3],130.5 mm Hg
same,mean blood pressure,[4],121.5 mm Hg
same,mean blood pressure,[5],123.1 mm Hg
same,mean blood pressure,[6],121.6 mm Hg
same,mean blood pressure,[7],123.8 mm Hg
same,mean blood pressure,[8],124.4 mm Hg
same,mean blood pressure,[9],128.7 mm Hg
same,mean blood pressure,[10],133.7 mm Hg
same,mean blood pressure,[11],139.2 mm Hg
same,mean blood pressure,[12],137.9 mm Hg
same,mean blood pressure,[13],143.0 mm Hg
same,mean blood pressure,[14],146.0 mm Hg
same,mean blood pressure,[15],149.2 mm Hg
same,mean blood pressure,[16],152.3 mm Hg
same,mean blood pressure,[17],155.5 mm Hg
same,mean blood pressure,[18],156.3 mm Hg
same,mean blood pressure,[19],157.3 mm Hg
same,mean blood pressure,[20],156.9 mm Hg
same,mean blood pressure,[21],156.3 mm Hg
same,mean blood pressure,[22],149.3 mm Hg
same,mean blood pressure,[23],147.1 mm Hg
same,mean blood pressure,[24],153.1 mm Hg
same,mean blood pressure,[25],152.3 mm Hg
"COC(=O)Nc1c(N)nc(-c2nn(Cc3ccccc3F)c3ncc(F)cc23)nc1N [Example 1, Methyl {4,6-diamino-2-[5-fluoro-1-(2-fluorobenzyl)-1H-pyrazolo[3,4-b]pyridin-3-yl]pyrimidin-5-yl}carbamate]",mean blood pressure,[1],151.0 mm Hg
same,mean blood pressure,[2],148.4 mm Hg
same,mean blood pressure,[3],136.4 mm Hg
same,mean blood pressure,[4],130.6 mm Hg
same,mean blood pressure,[5],129.1 mm Hg
same,mean blood pressure,[6],132.8 mm Hg
same,mean blood pressure,[7],125.6 mm Hg
same,mean blood pressure,[8],131.9 mm Hg
same,mean blood pressure,[9],131.8 mm Hg
same,mean blood pressure,[10],138.5 mm Hg
same,mean blood pressure,[11],138.3 mm Hg
same,mean blood pressure,[12],138.9 mm Hg
same,mean blood pressure,[13],137.7 mm Hg
same,mean blood pressure,[14],142.9 mm Hg
same,mean blood pressure,[15],144.5 mm Hg
same,mean blood pressure,[16],143.8 mm Hg
same,mean blood pressure,[17],146.3 mm Hg
same,mean blood pressure,[18],141.8 mm Hg
same,mean blood pressure,[19],138.4 mm Hg
same,mean blood pressure,[20],149.2 mm Hg
same,mean blood pressure,[21],145.1 mm Hg
same,mean blood pressure,[22],142.1 mm Hg
same,mean blood pressure,[23],141.8 mm Hg
same,mean blood pressure,[24],143.6 mm Hg
same,mean blood pressure,[25],135.1 mm Hg
same,mean blood pressure,"3.0 mg/kg p.o., 0 hours after substance administration",149.0 mm Hg
same,mean blood pressure,"3.0 mg/kg p.o., 1 hours after substance administration",129.3 mm Hg
same,mean blood pressure,"3.0 mg/kg p.o., 2 hours after substance administration",111.1 mm Hg
same,mean blood pressure,"3.0 mg/kg p.o., 3 hours after substance administration",106.0 mm Hg
same,mean blood pressure,"3.0 mg/kg p.o., 4 hours after substance administration",107.8 mm Hg
same,mean blood pressure,"3.0 mg/kg p.o., 5 hours after substance administration",109.3 mm Hg
same,mean blood pressure,"3.0 mg/kg p.o., 6 hours after substance administration",106.8 mm Hg
same,mean blood pressure,"3.0 mg/kg p.o., 7 hours after substance administration",110.9 mm Hg
same,mean blood pressure,"3.0 mg/kg p.o., 8 hours after substance administration",109.8 mm Hg
same,mean blood pressure,"3.0 mg/kg p.o., 9 hours after substance administration",114.3 mm Hg
same,mean blood pressure,"3.0 mg/kg p.o., 10 hours after substance administration",114.5 mm Hg
same,mean blood pressure,"3.0 mg/kg p.o., 11 hours after substance administration",115.6 mm Hg
same,mean blood pressure,"3.0 mg/kg p.o., 12 hours after substance administration",118.8 mm Hg
same,mean blood pressure,"3.0 mg/kg p.o., 13 hours after substance administration",120.4 mm Hg
same,mean blood pressure,"3.0 mg/kg p.o., 14 hours after substance administration",122.8 mm Hg
same,mean blood pressure,"3.0 mg/kg p.o., 15 hours after substance administration",125.8 mm Hg
same,mean blood pressure,"3.0 mg/kg p.o., 16 hours after substance administration",131.5 mm Hg
same,mean blood pressure,"3.0 mg/kg p.o., 17 hours after substance administration",124.7 mm Hg
same,mean blood pressure,"3.0 mg/kg p.o., 18 hours after substance administration",129.6 mm Hg
same,mean blood pressure,"3.0 mg/kg p.o., 19 hours after substance administration",135.6 mm Hg
same,mean blood pressure,"3.0 mg/kg p.o., 20 hours after substance administration",135.2 mm Hg
same,mean blood pressure,"3.0 mg/kg p.o., 21 hours after substance administration",129.3 mm Hg
same,mean blood pressure,"3.0 mg/kg p.o., 22 hours after substance administration",128.3 mm Hg
same,mean blood pressure,"3.0 mg/kg p.o., 23 hours after substance administration",130.2 mm Hg
same,mean blood pressure,"3.0 mg/kg p.o., 24 hours after substance administration",130.8 mm Hg
